Measured values reported in patent publication US20250017910A1, “2-Thioxothiazolidine-4-One Derivatives And Their Uses” (Prosetta Biosciences, Inc., priority 2023, published 2025).

Target: T1, alpha syn aggregates (Homo sapiens, UniProt P37840)
T1 construct: expressed in transfected cells; host or cells: NLF cells, Tet-on inducible expression
Experiment: Assay for Methamphetamine Addiction: alpha syn aggregates in NLF cells with or without amphetamine
Format: cell-based
Conditions: FIG. 1
From the text: FIG. 1 illustrates the average number of a syn aggregates per cell.
NLF cells were transfected with alpha synuclein behind a Tet-on promoter and induced to express alpha syn, resulting in the appearance of alpha syn aggregates. […] Aggregates were counted in ten randomly chosen fields and highest 3 in all conditions were quantified.

Compound	amphetamine mediated increase of alpha syn aggregates (0.5 mM amphetamine and 1 μM of compound)	number of alpha syn aggregates (treatment with 1 μM of compound)	number of alpha syn aggregates (treatment with 0.5 mM amphetamine)
CN1CCN(c2ccc(-c3ccc(/C=C4\SC(=S)N(CCc5ccccc5)C4=O)o3)cc2)CC1 [Compound 13]	eliminated the amphetamine mediated increase of aggregates	reduced the number of aggregates	–
CC(N)Cc1ccccc1 (stereo not drawn) [amphetamine, reference compound]	–	–	increased the number of aggregates
